Data set [1] addresses T1, hOGA (Homo sapiens, UniProt O60502).
T1 construct: started by addition of hOGA (WT, Full-length, expressed in E. coli. as previously described); made in house; host or cells: E. coli
T1 sequence (O60502 1-916): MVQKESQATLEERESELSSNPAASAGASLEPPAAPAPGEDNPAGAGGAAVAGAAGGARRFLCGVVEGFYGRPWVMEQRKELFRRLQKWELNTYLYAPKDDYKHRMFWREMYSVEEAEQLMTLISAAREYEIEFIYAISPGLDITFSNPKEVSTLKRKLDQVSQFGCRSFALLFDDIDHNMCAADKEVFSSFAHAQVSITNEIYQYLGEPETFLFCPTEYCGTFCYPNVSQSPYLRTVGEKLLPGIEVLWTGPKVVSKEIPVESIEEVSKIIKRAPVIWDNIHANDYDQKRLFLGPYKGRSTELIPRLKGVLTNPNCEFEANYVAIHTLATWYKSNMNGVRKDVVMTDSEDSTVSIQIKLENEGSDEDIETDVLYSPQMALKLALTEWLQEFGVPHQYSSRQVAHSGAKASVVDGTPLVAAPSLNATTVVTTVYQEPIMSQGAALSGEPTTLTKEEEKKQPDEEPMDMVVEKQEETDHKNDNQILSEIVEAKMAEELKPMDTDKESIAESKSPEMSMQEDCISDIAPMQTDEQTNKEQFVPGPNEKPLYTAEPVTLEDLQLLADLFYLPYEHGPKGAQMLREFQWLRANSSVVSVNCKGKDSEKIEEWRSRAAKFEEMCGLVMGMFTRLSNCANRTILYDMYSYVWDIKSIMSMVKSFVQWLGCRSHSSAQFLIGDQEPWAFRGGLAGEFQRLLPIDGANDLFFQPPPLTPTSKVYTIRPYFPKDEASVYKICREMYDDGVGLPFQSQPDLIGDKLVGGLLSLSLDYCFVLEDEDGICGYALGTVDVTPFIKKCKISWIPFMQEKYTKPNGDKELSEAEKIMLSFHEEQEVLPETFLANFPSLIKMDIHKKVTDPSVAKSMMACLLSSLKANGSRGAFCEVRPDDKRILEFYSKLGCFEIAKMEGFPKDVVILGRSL
Kind of data set: Interrupted assay for determination of hemiacetal breakdown. The format is biochemical. The note with it: hemiacetal generated from the substrate; hOGA stopped after 1 min with Thiamet-G 100 μM. The procedure:
For some experiments, fluorescence kinetic assays were performed using a Varian Cary Eclipse Spectrophotometer set for 335/493 nm excitation/emission wavelengths. Slits were set at 10 nm and the detector was set on Medium voltage. Enzymatic reactions with human OGA were carried out in PBS at 37° C. and were started by addition of hOGA (WT, Full-length, expressed in E. coli. as previously described) in a total volume of 160 μL (Starna sub-micro Fluorometer cuvette). For measurements of rates using different concentrations of substrates, a hOGA concentration of 100 nM was used. For hOGA titration, 25 μM of Glyco-BABS were added to various concentration of hOGA. For interrupted assay, reaction was started by addition of hOGA (680 nM final) in solutions of GlcNAc-BABS in PBS. […] For hemiacetal breakdown rate measurements, data after Thiamet-G addition was extracted and fitted using Prism software. EDANS standard curve was established using endpoint fluorescence measurements of serial dilutions of EDANS in the relevant buffer using the same instrument parameters. Inner-Filter effect measurements were carried out in cuvette by measuring fluorescence of several concentrations of EDANS in presence of various concentrations of GlcNAc-BABS. Kinetics with Glc-BABS and GBA enzymes (GBA1 and GBA3 purchased from R&D Systems), kinetics with GALC (R&D systems) and Gal-BABS, pH stability, quenching efficiency, some inner-filter effect experiments and lysates experiments were carried out using a Molecular Devices SpectraMax i3× plate reader. Emission/Excitation wavelengths were set at 350 and 490 nm respectively for EDANS/DABCYL Glyco-BABS and at 565 and 610 nm respectively for TAMRA/BHQ2 Glyco-BABS. Fluorescence measurements were performed using Costar 96-well black plates or Nunc 384-well black plates after sample preparation in 96-well mixing plates. For GBA1, the continuous assay was performed in citrate buffer (50 mM, pH 5.5) in the presence of 0.1% Triton, 1 mg/mL BSA and 0.14% taurodeoxycholate at 25° C. […]

Data set [2] has as its target T1, hOGA. Kind of data set: Turnover by hOGA within SK-N-SH lysate. It counts as biochemical. The procedure: For cell lysates experiments, SK-N-SH cells were cultured in EMEM media supplemented with 10% FBS and Penicillin/Streptomycin antibiotics. Cells were collected, washed with PBS and lyzed using ice-cold NP-40 lysis buffer (TRIS-HCl 50 mM pH 7.4, NP-40 1%, NaCl 150 mM). After centrifugation, the supernatant was diluted in PBS. The quantity of lysate used in each measurement well (384-well plate) was equivalent to 25000 cells. […] Reactions were started by adding the substrate at a final concentration of 20 μM. This experiment was carried out in quadruplicates and the rates were determined by establishing a standard curve for EDANS fluorescence in the SK-N-SH lysate.
To evaluate the compatibility of the BABS design with complex cellular extracts, we also measured the turnover of GlcNAc-Br-BABS in SK-N-SH cell lysate in the presence of increasing concentrations of hOGA (FIG. 9). […] Buffer control consists of PBS supplemented to lysis buffer. […] Error bars represent standard deviation over quadruplicate.

A short description of data set [3]: pH stability of Glyco-BABS. It counts as physicochemical. The note with it: 5 μM, up to 72 h, pH 2 to 10. The source says:
One concern with the Glyco-BABS design was the known lability of acetals under acidic conditions that has been exploited in pH-sensitive prodrugs or linkers for drug delivery.^41,42 However, we recognized that carbohydrate anomeric acetals are chemically distinct from regular acetals. Due to stabilization by the endocyclic oxygen, we expected these bis-acetals would show stability across a range of physiological pH values. We therefore assessed the stability of the bis-acetal motif toward acid and base hydrolysis (FIG. 8). To do so, we tested the pH stability of 5 μM of GlcNAc-Br-BABS 1, GlcNAc-OH-BABS 2, Glc-OH-BABS 6 and Glc-H-BABS 7 at different pH over time. We prepared solutions at various pH by mixing 0.2 M KCl+0.1 M HCl with 0.2 M KCl+0.1 M KOH. Fluorescence of EDANS and Glyco-BABS solutions (5 μM, 45 μL) at different pH was measured at different time points in Nunc 384-well plates using a SpectraMax i3× plate reader. Data (triplicates) support the highly efficient quenching and the stability of these substrates over a wide range of pH.

Data set [4] deals with T2, human Galactosylceramidase (GALC) (Homo sapiens, UniProt P54803).
T2 construct: purchased R&D systems
T2 sequence (P54803 43-685): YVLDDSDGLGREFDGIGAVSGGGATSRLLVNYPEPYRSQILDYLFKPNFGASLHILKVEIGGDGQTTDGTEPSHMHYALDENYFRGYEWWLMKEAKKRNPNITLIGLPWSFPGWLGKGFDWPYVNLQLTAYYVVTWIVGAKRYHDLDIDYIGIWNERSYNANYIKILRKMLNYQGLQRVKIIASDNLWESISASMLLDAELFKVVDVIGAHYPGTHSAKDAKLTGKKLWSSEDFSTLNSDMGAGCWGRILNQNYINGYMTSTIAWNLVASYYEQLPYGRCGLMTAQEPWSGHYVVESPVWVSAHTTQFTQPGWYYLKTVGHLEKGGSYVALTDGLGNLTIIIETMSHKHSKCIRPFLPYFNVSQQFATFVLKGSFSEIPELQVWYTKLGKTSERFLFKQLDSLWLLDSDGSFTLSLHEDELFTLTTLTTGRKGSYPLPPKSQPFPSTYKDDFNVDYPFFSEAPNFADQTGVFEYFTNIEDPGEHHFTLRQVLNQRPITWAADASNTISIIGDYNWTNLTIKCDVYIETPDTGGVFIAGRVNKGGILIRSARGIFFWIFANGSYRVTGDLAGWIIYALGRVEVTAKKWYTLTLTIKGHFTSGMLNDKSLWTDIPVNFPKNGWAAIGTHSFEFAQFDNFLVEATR
Description: In vitro kinetic assay with human GALC. It counts as biochemical. To be noted: 5 nM recombinant human GALC. The method, then:
For some experiments, fluorescence kinetic assays were performed using a Varian Cary Eclipse Spectrophotometer set for 335/493 nm excitation/emission wavelengths. Slits were set at 10 nm and the detector was set on Medium voltage. Enzymatic reactions with human OGA were carried out in PBS at 37° C. and were started by addition of hOGA (WT, Full-length, expressed in E. coli. as previously described) in a total volume of 160 μL (Starna sub-micro Fluorometer cuvette). For measurements of rates using different concentrations of substrates, a hOGA concentration of 100 nM was used. For hOGA titration, 25 μM of Glyco-BABS were added to various concentration of hOGA. […] EDANS standard curve was established using endpoint fluorescence measurements of serial dilutions of EDANS in the relevant buffer using the same instrument parameters. Inner-Filter effect measurements were carried out in cuvette by measuring fluorescence of several concentrations of EDANS in presence of various concentrations of GlcNAc-BABS. Kinetics with Glc-BABS and GBA enzymes (GBA1 and GBA3 purchased from R&D Systems), kinetics with GALC (R&D systems) and Gal-BABS, pH stability, quenching efficiency, some inner-filter effect experiments and lysates experiments were carried out using a Molecular Devices SpectraMax i3× plate reader. […]

In the next data set the target is T3, human O-GlcNAcase (hOGA) (Homo sapiens, UniProt O60502).
T3 construct: started by addition of hOGA (WT, Full-length, expressed in E. coli. as previously described); made in house; host or cells: E. coli
T3 sequence (O60502 1-916): T1 sequence (O60502 1-916)
The note with it: literature value (ref 39); cited from earlier work.

Molecules are shown by their SMILES.

With `CC(=O)N[C@H]1[C@H](O[C@@H](OCCOCCn2cc(CNC(=O)c3ccc(/N=N/c4ccc(N(C)C)cc4)cc3)nn2)[C@@](C)(Br)C(=O)NCCNc2cccc3c(S(=O)(=O)O)cccc23)O[C@H](CO)[C@@H](O)[C@@H]1O` [Compound 1, 5-((2-((2R,3R)-3-(((2S,3R,4R,5S,6R)-3-acetamido-4,5-dihydroxy-6-(hydroxymethyl)tetrahydro-2H-pyran-2-yl)oxy)-2-bromo-3-(2-(2-(4-((4-((E)-(4-(dimethylamino)phenyl)diazenyl)benzamido)methyl)-1H-1,2,3-triazol-1-yl)ethoxy)ethoxy)-2-methylpropanamido)ethyl)amino)naphthalene-1-sulfonic Acid], the “first order rate constant (k3) for hemiacetal breakdown” value at hOGA [1] was found to be 0.01 s⁻¹. Further, the “turnover in SK-N-SH cell lysate with added hOGA” value on hOGA [2] (20 μM substrate, 25° C., increasing hOGA) was “efficiently processed within lysates”. Moreover, the “pH stability (increase of fluorescence)” value in data set [3] is given as “no significant increase of fluorescence”. In the case of `CN(C)c1ccc(/N=N/c2ccc(C(=O)NCc3cn(CCOCCO[C@H](O[C@@H]4O[C@H](CO)[C@H](O)[C@H](O)[C@H]4O)[C@@](C)(Br)C(=O)NCCNc4cccc5c(S(=O)(=O)O)cccc45)nn3)cc2)cc1` [Compound 4, 5-((2-((2R,3R)-2-bromo-3-(2-(2-(4-((4-((E)-(4-(dimethylamino)phenyl)diazenyl)benzamido)methyl)-1H-1,2,3-triazol-1-yl)ethoxy)ethoxy)-2-methyl-3-(((2S,3R,4S,5R,6R)-3,4,5-trihydroxy-6-(hydroxymethyl)tetrahydro-2H-pyran-2-yl)oxy)propanamido)ethyl)amino)naphthalene-1-sulfonic Acid], in data set [4], the “turnover by human GALC” value is “turned over”. In the case of `CN(C)c1ccc(/N=N/c2ccc(C(=O)NCc3cn(CCOCCO[C@H](O[C@@H]4O[C@H](CO)[C@H](O)[C@H](O)[C@H]4O)[C@@](C)(O)C(=O)NCCNc4cccc5c(S(=O)(=O)O)cccc45)nn3)cc2)cc1` [Compound 5, 5-((2-((2R,3R)-3-(2-(2-(4-((4-((E)-(4-(dimethylamino)phenyl)diazenyl)benzamido)methyl)-1H-1,2,3-triazol-1-yl)ethoxy)ethoxy)-2-hydroxy-2-methyl-3-(((2S,3R,4S,5R,6R)-3,4,5-trihydroxy-6-(hydroxymethyl)tetrahydro-2H-pyran-2-yl)oxy)propanamido)ethyl)amino)naphthalene-1-sulfonic Acid], the “turnover by human GALC” value in data set [4] is recorded as “turned over”. Take `CCNC1=N[C@@H]2[C@@H](O)[C@H](O)[C@@H](CO)O[C@@H]2S1` [Thiamet-G, (3aR,5R,6S,7R,7aR)-2-(ethylamino)-3a,6,7,7a-tetrahydro-5-(hydroxymethyl)-5H-Pyrano[3,2-d]thiazole-6,7-diol, reference compound]: the “inhibition of substrate turnover in SK-N-SH lysate” value at hOGA [2] (Thiamet-G 200 μM, substrate GlcNAc-Br-BABS 1) is given as “completely inhibits”. As to `CO[C@@H]1O[C@H](CO)[C@@H](O)[C@H](O)[C@H]1NC(C)=O` [methyl β-D-N-acetylglucopyranoside], the “second order rate constant with hOGA” value on human O-GlcNAcase (hOGA) is 440 M⁻¹ s⁻¹.
